The compounds below were run against horseradish peroxidase / H2O2 (Armoracia rusticana, UniProt P00433) (assay: Amplex Red counter screen assay (cells replaced by H2O2)). Settings: counter screen: H2O2-generating cells replaced by 1562.5 nM H2O2 in 1×PBS; read-out: IC50 Control.
Assay type: biochemical
Description: In order to identify compounds that interfere with the activity assay either by inhibiting the activity of horseradish peroxidase or by directly interacting with the formed H2O2 a counter screen assay was established. This control assay is almost identical to the described Amplex Red activity assay with the only difference that the H2O2— generating cells are replaced by 1562.5 nM H2O2 in 1×PBS.

Chain of horseradish peroxidase / H2O2 (P00433 31-338): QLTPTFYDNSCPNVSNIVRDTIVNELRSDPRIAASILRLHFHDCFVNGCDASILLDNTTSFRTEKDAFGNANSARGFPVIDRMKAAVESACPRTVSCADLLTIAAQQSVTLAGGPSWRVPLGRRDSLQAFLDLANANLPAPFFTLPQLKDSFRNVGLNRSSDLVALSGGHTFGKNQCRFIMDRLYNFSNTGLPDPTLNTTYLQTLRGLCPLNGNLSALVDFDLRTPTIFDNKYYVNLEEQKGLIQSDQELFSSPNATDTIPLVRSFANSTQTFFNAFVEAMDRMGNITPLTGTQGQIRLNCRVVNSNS

Compound	IC50
2,3-Dihydro-benzofuran-5-carboxylic acid (2-dimethylamino-benzothiazol-5-yl)-amide [Example 86]	> 50000 nM
2,3-Dihydro-benzofuran-5-carboxylic acid [2-(1-oxa-7-aza-spiro[3.5]non-7-yl)-benzooxazol-5-yl]-amide [Example 28]	> 50000 nM

Each compound was assayed against T1, human NOX4 (Homo sapiens, UniProt Q9NPH5) (assay: Amplex Red activity assay (cellular H2O2 formation in hNOX4 T-REx-293 cells)). Settings: tet-induced 24 h, extracellular H2O2 by Amplex Red, 60 min 25° C., geometric mean if determined several times.
T1 construct: The full-length human NOX4 (NM_016931.3) transcript was cloned; expressed in transfected cells
T1 sequence (Q9NPH5 1-578): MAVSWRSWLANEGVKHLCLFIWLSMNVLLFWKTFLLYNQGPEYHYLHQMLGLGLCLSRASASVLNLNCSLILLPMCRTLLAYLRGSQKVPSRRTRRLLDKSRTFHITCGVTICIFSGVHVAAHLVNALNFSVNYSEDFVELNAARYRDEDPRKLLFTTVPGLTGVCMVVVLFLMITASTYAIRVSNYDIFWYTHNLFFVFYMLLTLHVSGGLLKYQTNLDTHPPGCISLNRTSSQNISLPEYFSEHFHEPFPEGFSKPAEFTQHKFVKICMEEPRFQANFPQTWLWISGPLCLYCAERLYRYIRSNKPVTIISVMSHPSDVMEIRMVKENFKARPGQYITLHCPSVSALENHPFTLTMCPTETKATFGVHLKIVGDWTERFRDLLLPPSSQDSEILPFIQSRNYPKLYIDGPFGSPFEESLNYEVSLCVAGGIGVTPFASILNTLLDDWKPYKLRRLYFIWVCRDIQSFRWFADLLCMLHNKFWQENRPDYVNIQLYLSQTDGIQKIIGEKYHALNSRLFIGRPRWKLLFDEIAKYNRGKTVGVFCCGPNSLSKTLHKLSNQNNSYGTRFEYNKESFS
T1 sequence (P13498 1-195 partner): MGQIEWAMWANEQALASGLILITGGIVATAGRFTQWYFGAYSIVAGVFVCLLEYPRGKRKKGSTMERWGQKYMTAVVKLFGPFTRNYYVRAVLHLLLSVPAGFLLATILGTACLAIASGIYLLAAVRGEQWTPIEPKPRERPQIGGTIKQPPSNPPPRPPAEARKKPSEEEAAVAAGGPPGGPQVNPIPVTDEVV
Assay type: cell-based
Method in brief: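 Tet-induced (1 μg/mL, 24 h) HEK293 T-REx cells stably expressing full-length human NOX4, 20 000 cells/well, exposed to compounds (10 concentrations, 50 μM to 100 nM; 1.25% DMSO) for 60 min at 25°C. Extracellular H2O2 detected by Amplex Red resorufin fluorescence (ex 550/em 600 nm) versus vehicle; IC50 calculated.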

Compound	IC50
2,3-Dihydro-benzofuran-5-carboxylic acid (2-dimethylamino-benzothiazol-5-yl)-amide [Example 86]	2680 nM
CN1CCOc2ccc(C(=O)Nc3ccc4oc(N(C5CC5)C5COC5)nc4c3)cc21 [Example 195, 4-Methyl-3,4-dihydro-2H-benzo[1,4]oxazine-6-carboxylic acid [2-(cyclopropyl-oxetan-3-yl-amino)-benzooxazol-5-yl]-amide]	4440 nM
CN(C)CCN(C)c1nc2cc(NC(=O)c3ccc4c(c3)CCO4)ccc2s1 [Example 93, 2,3-Dihydro-benzofuran-5-carboxylic acid {2-[(2-dimethylamino-ethyl)-methyl-amino]-benzothiazol-5-yl}-amide]	10300 nM
O=C(Nc1ccc2sc(N3CCCC(F)(F)C3)nc2c1)c1ccc2c(c1)CCO2 [Example 89, 2,3-Dihydro-benzofuran-5-carboxylic acid [2-(3,3-difluoro-piperidin-1-yl)-benzothiazol-5-yl]-amide]	1920 nM
O=C(Nc1ccc2sc(N3CCC(O)CC3)nc2c1)c1ccc2c(c1)CCO2 [Example 110, 2,3-Dihydro-benzofuran-5-carboxylic acid [2-(4-hydroxy-piperidin-1-yl)-benzothiazol-5-yl]-amide]	2030 nM
O=C(Nc1ccc2oc(N3CCCC3)nc2c1)c1ccc2c(c1)CCCO2 [Example 146, Chroman-6-carboxylic acid (2-pyrrolidin-1-yl-benzooxazol-5-yl)-amide]	3180 nM
COCC1CCCN1c1nc2cc(NC(=O)c3ccc4c(c3)CCO4)ccc2s1 (stereo not shown) [Example 113, 2,3-Dihydro-benzofuran-5-carboxylic acid [2-(2-methoxymethyl-pyrrolidin-1-yl)-benzothiazol-5-yl]-amide]	3250 nM
CN1CCN(c2nc3cc(NC(=O)c4ccc5c(c4)N(C)CCO5)ccc3o2)CC1 [Example 193, 4-Methyl-3,4-dihydro-2H-benzo[1,4]oxazine-6-carboxylic acid [2-(4-methyl-piperazin-1-yl)-benzooxazol-5-yl]-amide]	4040 nM
COC1CCN(c2nc3cc(NC(=O)c4ccc5c(c4)CCO5)ccc3s2)C1 (stereo not shown) [Example 94, 2,3-Dihydro-benzofuran-5-carboxylic acid [2-(3-methoxy-pyrrolidin-1-yl)-benzothiazol-5-yl]-amide]	3290 nM
CN1CCN(c2nc3cc(NC(=O)c4ccc5c(c4)CCO5)ccc3s2)CC1 [Example 83, 2,3-Dihydro-benzofuran-5-carboxylic acid [2-(4-methyl-piperazin-1-yl)-benzothiazol-5-yl]-amide]	3540 nM
O=C(Nc1ccc2sc(N3CCN(C4COC4)CC3)nc2c1)c1ccc2c(c1)CCO2 [Example 102, 2,3-Dihydro-benzofuran-5-carboxylic acid [2-(4-oxetan-3-yl-piperazin-1-yl)-benzothiazol-5-yl]-amide]	9170 nM
O=C(Nc1ccc2sc(N3CC[C@@H](O)C3)nc2c1)c1ccc2c(c1)CCO2 [Example 112, 2,3-Dihydro-benzofuran-5-carboxylic acid [2-((R)-3-hydroxy-pyrrolidin-1-yl)-benzothiazol-5-yl]-amide]	2270 nM
CN1CCOc2ccc(C(=O)Nc3ccc4oc(N5CCCC5)nc4c3)cc21 [Example 183, 4-Methyl-3,4-dihydro-2H-benzo[1,4]oxazine-6-carboxylic acid (2-pyrrolidin-1-yl-benzooxazol-5-yl)-amide]	8700 nM
O=C(Nc1ccc2c(c1)CCO2)c1ccc2sc(N3CCCCC3)nc2c1 [Example 196, 2-Piperidin-1-yl-benzothiazole-5-carboxylic acid (2,3-dihydro-benzofuran-5-yl)-amide]	2560 nM
O=C(Nc1ccc2sc(N3CC[C@H](O)C3)nc2c1)c1ccc2c(c1)CCO2 [Example 98, (S)—N-(2-(3-hydroxypyrrolidin-1-yl)benzo[d]thiazol-5-yl)-2,3-dihydrobenzofuran-5-carboxamide]	2530 nM

Stronger by IC50, values ahead:

IC50	Compound
1640 nM	CN1CCN(c2nc3cc(NC(=O)c4ccc5c(c4)OCO5)ccc3o2)CC1 [Example 137, Benzo[1,3]dioxole-5-carboxylic acid [2-(4-methyl-piperazin-1-yl)-benzooxazol-5-yl]-amide]
1400 nM	O=C(Nc1ccc2oc(N3CCC34CCOCC4)nc2c1)c1ccc2c(c1)CCCO2 [Example 145, Chroman-6-carboxylic acid [2-(7-oxa-1-aza-spiro[3.5]non-1-yl)-benzooxazol-5-yl]-amide]
1280 nM	O=C(Nc1ccc2oc(N3CCCC3)nc2c1)c1ccc2c(c1)OCCO2 [Example 164, 2,3-Dihydro-benzo[1,4]dioxine-6-carboxylic acid (2-pyrrolidin-1-yl-benzooxazol-5-yl)-amide]
695 nM	2,3-Dihydro-benzofuran-5-carboxylic acid [2-(1-oxa-7-aza-spiro[3.5]non-7-yl)-benzooxazol-5-yl]-amide [Example 28]
451 nM	O=C(Nc1ccc2oc(N3CCC4(CC3)COC4)nc2c1)c1ccc2c(c1)CCO2 [Example 50, 2,3-Dihydro-benzofuran-5-carboxylic acid [2-(2-oxa-7-aza-spiro[3.5]non-7-yl)-benzooxazol-5-yl]-amide]
448 nM	O=C(Nc1ccc2oc(N3CCC(O)CC3)nc2c1)c1ccc2c(c1)CCO2 [Example 48, 2,3-Dihydro-benzofuran-5-carboxylic acid [2-(4-hydroxy-piperidin-1-yl)-benzooxazol-5-yl]-amide]
405 nM	O=C(Nc1ccc2oc(N3CCC34COC4)nc2c1)c1ccc2c(c1)CCO2 [Example 15, 2,3-Dihydro-benzofuran-5-carboxylic acid [2-(6-oxa-1-aza-spiro[3.3]hept-1-yl)-benzooxazol-5-yl]-amide]
358 nM	COC1CCN(c2nc3cc(NC(=O)c4ccc5c(c4)CCO5)ccc3o2)CC1 [Example 11, 2,3-Dihydro-benzofuran-5-carboxylic acid [2-(4-methoxy-piperidin-1-yl)-benzooxazol-5-yl]-amide]
